Numbering of substitutions follows the chain as printed.
What was measured:
[1] = target: T1, ASK1-TIR1-IAA6 co-receptor complex (TIR1-IAA6) (Arabidopsis thaliana, UniProt Q38824+Q570C0); experiment: homologous competition radioligand binding
T1 construct: ASK1-TIR1 from insect cells (Sf9 or Hi5), purified; IAA6 N-terminally GST-tagged from E. coli, full length; with SKP1-like protein 1A
T1 sequence (Q570C0 1-594): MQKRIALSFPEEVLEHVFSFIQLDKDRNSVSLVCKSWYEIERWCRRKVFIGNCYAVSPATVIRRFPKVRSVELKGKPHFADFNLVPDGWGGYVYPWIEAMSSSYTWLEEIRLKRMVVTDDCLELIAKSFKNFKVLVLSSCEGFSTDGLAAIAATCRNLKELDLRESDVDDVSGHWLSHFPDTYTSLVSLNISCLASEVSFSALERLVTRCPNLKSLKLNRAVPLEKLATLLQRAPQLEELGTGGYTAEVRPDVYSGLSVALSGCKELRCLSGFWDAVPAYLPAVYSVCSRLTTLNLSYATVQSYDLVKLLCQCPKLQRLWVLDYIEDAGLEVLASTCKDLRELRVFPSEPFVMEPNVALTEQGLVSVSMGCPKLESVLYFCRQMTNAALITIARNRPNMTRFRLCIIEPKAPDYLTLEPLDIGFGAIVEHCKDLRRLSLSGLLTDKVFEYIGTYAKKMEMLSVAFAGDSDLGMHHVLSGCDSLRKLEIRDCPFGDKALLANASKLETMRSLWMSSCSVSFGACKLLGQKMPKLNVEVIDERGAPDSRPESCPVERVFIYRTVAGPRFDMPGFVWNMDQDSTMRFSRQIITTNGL
T1 sequence (Q38824 1-189): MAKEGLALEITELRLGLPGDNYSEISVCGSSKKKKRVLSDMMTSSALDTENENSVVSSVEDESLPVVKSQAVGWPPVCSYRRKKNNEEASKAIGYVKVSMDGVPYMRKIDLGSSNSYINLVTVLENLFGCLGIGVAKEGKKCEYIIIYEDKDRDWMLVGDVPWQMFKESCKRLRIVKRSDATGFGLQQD
T1 sequence (Q39255 1-160 partner): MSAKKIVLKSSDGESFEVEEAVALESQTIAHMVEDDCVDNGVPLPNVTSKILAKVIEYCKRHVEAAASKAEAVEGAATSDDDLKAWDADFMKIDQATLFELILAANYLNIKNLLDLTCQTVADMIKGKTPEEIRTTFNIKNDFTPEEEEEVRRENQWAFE

[2] = target: T2, ASK1-TIR1-IAA6 co-receptor complex (TIR1-IAA6) (Arabidopsis thaliana, UniProt Q38824+Q570C0, Q38824:C78R); experiment: one-point [3H]IAA saturation binding; conditions: labelled compound; 200 nM [3H]IAA; shy1-1 degron mutant
T2 construct: ASK1-TIR1 from insect cells (Sf9 or Hi5), purified; IAA6 N-terminally GST-tagged from E. coli, full length; with SKP1-like protein 1A
T2 sequence (Q570C0 1-594): T1 sequence (Q570C0 1-594)
T2 sequence (Q38824 1-189 C78R): T1 sequence (Q38824 1-189) with C78R
T2 sequence (Q39255 1-160 partner): T1 sequence (Q39255 1-160 partner)

[3] = target: T3, AFB2-IAA6 (yeast two-hybrid) (Arabidopsis thaliana, UniProt Q38824+Q9LW29); experiment: yeast two-hybrid, beta-galactosidase reporter; format: cell-based; conditions: auxin-dependent association in yeast; low micromolar IAA
T3 construct: LexA DBD-AFB2 and AD-IAA6 fusions in yeast diploids
T3 sequence (Q9LW29 1-575): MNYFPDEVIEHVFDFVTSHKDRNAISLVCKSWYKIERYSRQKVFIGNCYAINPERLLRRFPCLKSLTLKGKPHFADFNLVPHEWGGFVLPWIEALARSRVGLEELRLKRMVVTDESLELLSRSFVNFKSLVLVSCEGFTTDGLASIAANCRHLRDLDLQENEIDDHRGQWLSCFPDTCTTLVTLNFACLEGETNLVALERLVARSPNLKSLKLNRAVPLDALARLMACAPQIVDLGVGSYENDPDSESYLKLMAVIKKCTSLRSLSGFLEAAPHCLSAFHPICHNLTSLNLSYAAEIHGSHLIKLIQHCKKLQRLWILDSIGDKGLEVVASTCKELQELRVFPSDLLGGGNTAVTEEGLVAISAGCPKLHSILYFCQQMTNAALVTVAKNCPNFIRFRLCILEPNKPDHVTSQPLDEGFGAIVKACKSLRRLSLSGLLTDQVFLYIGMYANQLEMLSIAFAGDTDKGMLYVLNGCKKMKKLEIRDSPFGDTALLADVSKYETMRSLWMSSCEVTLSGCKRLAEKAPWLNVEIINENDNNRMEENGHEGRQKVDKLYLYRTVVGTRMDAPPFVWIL
T3 sequence (Q38824 1-189): T1 sequence (Q38824 1-189)

[4] = target: T4, AFB1-IAA6 (yeast two-hybrid) (Arabidopsis thaliana, UniProt Q38824+Q9ZR12); experiment: yeast two-hybrid, beta-galactosidase reporter; format: cell-based; conditions: auxin-dependent association in yeast; low micromolar IAA
T4 construct: gene GRH1; LexA DBD-AFB1 and AD-IAA6 fusions in yeast diploids
T4 sequence (Q9ZR12 1-585): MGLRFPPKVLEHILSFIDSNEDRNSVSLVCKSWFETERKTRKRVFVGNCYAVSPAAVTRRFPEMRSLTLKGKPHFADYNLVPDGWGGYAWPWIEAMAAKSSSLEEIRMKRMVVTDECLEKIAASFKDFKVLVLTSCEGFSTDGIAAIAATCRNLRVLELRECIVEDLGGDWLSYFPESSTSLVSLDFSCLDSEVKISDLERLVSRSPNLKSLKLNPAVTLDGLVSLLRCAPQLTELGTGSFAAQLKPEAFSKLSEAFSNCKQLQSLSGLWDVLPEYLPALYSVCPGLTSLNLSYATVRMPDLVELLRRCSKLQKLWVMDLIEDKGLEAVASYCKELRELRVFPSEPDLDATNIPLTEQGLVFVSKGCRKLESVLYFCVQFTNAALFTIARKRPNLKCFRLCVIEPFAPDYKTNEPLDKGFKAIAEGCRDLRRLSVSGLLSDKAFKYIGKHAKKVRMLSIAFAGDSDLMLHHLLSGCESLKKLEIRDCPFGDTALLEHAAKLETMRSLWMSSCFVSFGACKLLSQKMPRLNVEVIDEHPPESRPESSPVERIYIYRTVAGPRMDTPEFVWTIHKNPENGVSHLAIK
T4 sequence (Q38824 1-189): T1 sequence (Q38824 1-189)

[5] = target: T5, ASK1-TIR1-IAA19 co-receptor complex (TIR1-IAA19) (Arabidopsis thaliana, UniProt O24409+Q570C0); experiment: [3H]IAA saturation radioligand binding
T5 construct: ASK1-TIR1 from insect cells (Sf9 or Hi5), purified; IAA19 N-terminally GST-tagged from E. coli, full length; with SKP1-like protein 1A
T5 sequence (Q570C0 1-594): T1 sequence (Q570C0 1-594)
T5 sequence (O24409 1-197): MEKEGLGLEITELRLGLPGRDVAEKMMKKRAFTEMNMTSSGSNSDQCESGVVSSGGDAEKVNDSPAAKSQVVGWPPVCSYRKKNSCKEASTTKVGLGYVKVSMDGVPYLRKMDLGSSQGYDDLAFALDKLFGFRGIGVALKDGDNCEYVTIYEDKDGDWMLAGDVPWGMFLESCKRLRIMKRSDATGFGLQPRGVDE
T5 sequence (Q39255 1-160 partner): T1 sequence (Q39255 1-160 partner)

[6] = target: T5, ASK1-TIR1-IAA19 co-receptor complex (TIR1-IAA19); experiment: homologous competition radioligand binding; conditions: unlabelled IAA against 25 nM [3H]IAA
[7] = target: T5, ASK1-TIR1-IAA19 co-receptor complex (TIR1-IAA19); experiment: homologous competition radioligand binding
[8] = target: T6, ASK1-TIR1-IAA19 co-receptor complex (TIR1-IAA19) (Arabidopsis thaliana, UniProt O24409+Q570C0, O24409:P76S); experiment: one-point [3H]IAA saturation binding; conditions: labelled compound; 200 nM [3H]IAA; msg2-1 degron mutant
T6 construct: ASK1-TIR1 from insect cells (Sf9 or Hi5), purified; IAA19 N-terminally GST-tagged from E. coli, full length; with SKP1-like protein 1A
T6 sequence (Q570C0 1-594): T1 sequence (Q570C0 1-594)
T6 sequence (O24409 1-197 P76S): T5 sequence (O24409 1-197) with P76S
T6 sequence (Q39255 1-160 partner): T1 sequence (Q39255 1-160 partner)

[9] = target: T7, AFB1-IAA19 (yeast two-hybrid) (Arabidopsis thaliana, UniProt O24409+Q9ZR12); experiment: yeast two-hybrid, beta-galactosidase reporter; format: cell-based; conditions: auxin-dependent association in yeast; low micromolar IAA
T7 construct: gene GRH1; LexA DBD-AFB1 and AD-IAA19 fusions in yeast diploids
T7 sequence (Q9ZR12 1-585): T4 sequence (Q9ZR12 1-585)
T7 sequence (O24409 1-197): T5 sequence (O24409 1-197)

[10] = target: T8, AFB2-IAA19 (yeast two-hybrid) (Arabidopsis thaliana, UniProt O24409+Q9LW29); experiment: yeast two-hybrid, beta-galactosidase reporter; format: cell-based; conditions: auxin-dependent association in yeast; low micromolar IAA
T8 construct: LexA DBD-AFB2 and AD-IAA19 fusions in yeast diploids
T8 sequence (Q9LW29 1-575): T3 sequence (Q9LW29 1-575)
T8 sequence (O24409 1-197): T5 sequence (O24409 1-197)

[11] = target: T1, ASK1-TIR1-IAA6 co-receptor complex (TIR1-IAA6); experiment: [3H]IAA saturation radioligand binding
[12] = target: T1, ASK1-TIR1-IAA6 co-receptor complex (TIR1-IAA6); experiment: homologous competition radioligand binding; conditions: unlabelled IAA against 50 nM [3H]IAA

With `O=C(O)Cc1c[nH]c2ccccc12` [IAA] the Ki [1] was 99.3 ± 11.9 nM, the “specific binding at 200 nM” value [2] was “IAA6^C78R/shy1-1 and IAA19^P76S/msg2-1 mutants that mimic stabilized version of the proteins affect significantly” and the “yeast two-hybrid, beta-galactosidase reporter” value (“yeast two-hybrid” below) [3] was “IAA6 and IAA19 interacted in an auxin-dependent manner with TIR1, AFB1 and AFB2”. For the same compound, the “yeast two-hybrid” value [4] was “IAA6 and IAA19 interacted in an auxin-dependent manner with TIR1, AFB1 and AFB2”, the Kd [5] was 15.6 ± 2 nM and the IC50 [6] was “determined IC50 and Ki values for each of the complexes”. The Ki [7] was 33.5 ± 3.7 nM, the “specific binding at 200 nM” value [8] was “IAA6^C78R/shy1-1 and IAA19^P76S/msg2-1 mutants that mimic stabilized version of the proteins affect significantly” and the “yeast two-hybrid” value [9] was “IAA6 and IAA19 interacted in an auxin-dependent manner with TIR1, AFB1 and AFB2”. For the same compound, the “yeast two-hybrid” value [10] was “IAA6 and IAA19 interacted in an auxin-dependent manner with TIR1, AFB1 and AFB2”, the Kd [11] was 72 ± 10.5 nM and the IC50 [12] was “determined IC50 and Ki values for each of the complexes”.

— PMC5467235, “Variation in auxin sensing guides AUX/IAA transcriptional repressor ubiquitylation and destruction” (Nature Communications, 2017)
